How the values were obtained:
[1] = Stability of CLF spiked directly in human plasma at room temperature and 4° C. (Test 3), HPLC-MS/MS; assay type: in vitro ADME; settings: for CLF concentration: human plasma spiked 100 ng/ml, mean ± SEM (n = 2); for CLF remaining: human plasma, vs To; for percentage of compound remaining (by comparing with content at To), lowest over incubation: plasma, up to 24 h
Protocol: Test 3: […] The final concentration of CLF was of 100 ng/ml. Two aliquots of 200 μl of plasma spiked with CLF were taken (To) and the remaining solution was divided in 2 equal fractions. One fraction was incubated at room temperature and the second one was incubated at 4° C. Two aliquots of 200 μl were taken from both fractions after 30 min, 120 min and 24 h of incubation. Samples were stored at −70° C. until further analysis. […] Thus, a stock solution of IS at 100 μg/ml in acetonitrile was 50-fold diluted in acetonitrile in order to obtain a final concentration of 2 μg/ml. Then, 200 μl of this solution were added to each plasma sample in order to precipitate the proteins. Samples were vortexed/mixed and centrifuged 5 min at 20,000 g (4° C.). After centrifugation, the clear supernatant (around 250 μl) was transferred into 1.2 ml HPLC glass vials and sealed. Samples were placed into the refrigerated autosampler and 20 μl were injected into the HPLC-MS/MS system. Test samples were injected twice. […] The injected volume of sample was 20 μl and the “full loop” mode was applied. The temperature of the analytical column was kept at 30° C. CLF and its IS were separated on an Acclaim 120 C18 column (5 μm, 2.1×100 mm, Dionex) by elution with a linear gradient of acetonitrile in water as described in Table 6. An ion trap mass spectrometer equipped with an ESI interface was operated in the positive ionization mode. For each compound, the most abundant ion formed in MS was selected for MS/MS fragmentations. In order to increase the sensitivity and the specificity of the method, the MRM mode was selected. The most specific daughter ions formed in MS/MS were used for quantification.

[2] = Stability of buffer-based CLF standards after 4 weeks storage at 2-8° C., CLF ELISA; assay type: physicochemical; settings: for mean OD, fresh: freshly made; for decrease in immunoreactivity: buffer-based CLF standards
Protocol: These conditions were used for all assays described in Phase 2a (above) and Phase 2b (below). See Appendix B and C for buffer and conjugate formulations respectively: • Add 25 μl/well of sample or standard (0-1000 ng/ml CLF in Buffer #24) to the wells of a streptavidin-coated microtitre plate (NovAssay, F2SAC). • Add 100 μl/well of fluorescein-biotin (Sigma B9431) at 20 ng/ml in Buffer #24+0.2% w/v ANS (Sigma 10417). • Add 100 μl/well of anti-fluorescein HRP (NovAssay, DV047/17-3) at 100 ng/ml in Buffer #24. • Incubate the plate for 30 minutes at room temperature. • Wash the plate 3 times with 800 μl/well Buffer #29 and tap the plate dry. • Add 100 μl/well of SureBlue Reserve TMB Substrate (KPL) and incubate the plate for 10 minutes at room temperature. • Stop the substrate reaction by adding 100 μl/well of 1M HCl and read the absorbance at 450 nm wavelength (ThermoFisher Scientific, Multiskan FC).
Standards were prepared by spiking CLF into buffer (6 standards having a concentration span of 0 to 1000 ng/ml). The standards were stored at 2-8° C. for 4 weeks. They were then taken out of the fridge and assayed alongside standards that were freshly made.

[3] = room temperature (25 ± 2° C.), 0.0 hours
[4] = room temperature (25 ± 2° C.), 0.5 hours
[5] = room temperature (25 ± 2° C.), 2.0 hours
[6] = room temperature (25 ± 2° C.), 24.0 hours
[7] = Fresh std 16 ng/ml, 4 weeks at 2-8° C.
[8] = Fresh std 31 ng/ml, 4 weeks at 2-8° C.
[9] = Fresh std 63 ng/ml, 4 weeks at 2-8° C.
[10] = Fresh std 125 ng/ml, 4 weeks at 2-8° C.
[11] = Fresh std 250 ng/ml, 4 weeks at 2-8° C.
[12] = Fresh std 500 ng/ml, 4 weeks at 2-8° C.
[13] = Fresh std 1000 ng/ml, 4 weeks at 2-8° C.

SMILES: CC(CCC(=O)NC(CCCCNC(=S)Nc1ccc(-c2c3ccc(=O)cc-3oc3cc(O)ccc23)c(C(=O)O)c1)C(=O)O)C1CCC2C3C(O)CC4CC(O)CCC4(C)C3CC(O)C12C [CLF, Cholyl-L-Lysyl-Fluorescein]
- CLF stability directly in plasma ([1]; 4° C. and room temperature, 24 h): stable for 24 h
- CLF concentration ([1]; 4° C., 0.0 hours): 101.9 ± 4.6 ng/mL
- CLF concentration ([1]; 4° C., 0.5 hours): 101.4 ± 3.5 ng/mL
- CLF concentration ([1]; 4° C., 2.0 hours): 89.9 ± 3.4 ng/mL
- CLF concentration ([1]; 4° C., 24.0 hours): 94.5 ± 3.6 ng/mL
- CLF concentration [1, 3]: 101.9 ± 4.6 ng/mL
- CLF concentration [1, 4]: 85.3 ± 0.0 ng/mL
- CLF concentration [1, 5]: 93.2 ± 0.0 ng/mL
- CLF concentration [1, 6]: 100.7 ± 3.3 ng/mL
- CLF remaining ([1]; 4° C., 0.0 hours): 100.0%
- CLF remaining ([1]; 4° C., 0.5 hours): 99.5%
- CLF remaining ([1]; 4° C., 2.0 hours): 88.2%
- CLF remaining ([1]; 4° C., 24.0 hours): 92.7%
- CLF remaining [1, 3]: 100.0%
- CLF remaining [1, 4]: 83.7%
- CLF remaining [1, 5]: 91.4%
- CLF remaining [1, 6]: 98.8%
- plasmatic concentrations measured ([1]; plasma spiked with 100 ng/ml, 4° C. and room temperature, 0-24 h): 85.3 to 101.9 ng/mL
- percentage of compound remaining (by comparing with content at To), lowest over incubation ([1]; 4° C.): ≥ 88.2%
- percentage of compound remaining (by comparing with content at To), lowest over incubation ([1]; room temperature): at least 83.7%
- 4-week stds [2, 7]: 5 ng/mL
- % change in CLF immunoreactivity [2, 7]: −67%
- 4-week stds [2, 8]: 17 ng/mL
- % change in CLF immunoreactivity [2, 8]: −44%
- 4-week stds [2, 9]: 38 ng/mL
- % change in CLF immunoreactivity [2, 9]: −40%
- 4-week stds [2, 10]: 72 ng/mL
- % change in CLF immunoreactivity [2, 10]: −42%
- 4-week stds [2, 11]: 162 ng/mL
- % change in CLF immunoreactivity [2, 11]: −35%
- 4-week stds [2, 12]: 359 ng/mL
- % change in CLF immunoreactivity [2, 12]: −28%
- 4-week stds [2, 13]: 685 ng/mL
- % change in CLF immunoreactivity [2, 13]: −31%
- mean OD, 4-week old stds ([2]; buffer standard 16 ng/ml, 4 weeks at 2-8° C.): 3.219
- mean OD, fresh ([2]; buffer standard 16 ng/ml): 2.745
- mean OD, 4-week old stds ([2]; buffer standard 31 ng/ml, 4 weeks at 2-8° C.): 2.699
- mean OD, fresh ([2]; buffer standard 31 ng/ml): 2.265
- mean OD, 4-week old stds ([2]; buffer standard 63 ng/ml, 4 weeks at 2-8° C.): 2.133
- mean OD, fresh ([2]; buffer standard 63 ng/ml): 1.653
- mean OD, 4-week old stds ([2]; buffer standard 125 ng/ml, 4 weeks at 2-8° C.): 1.577
- mean OD, fresh ([2]; buffer standard 125 ng/ml): 0.884
- mean OD, 4-week old stds ([2]; buffer standard 250 ng/ml, 4 weeks at 2-8° C.): 0.953
- mean OD, fresh ([2]; buffer standard 250 ng/ml): 0.661
- mean OD, 4-week old stds ([2]; buffer standard 500 ng/ml, 4 weeks at 2-8° C.): 0.528
- mean OD, fresh ([2]; buffer standard 500 ng/ml): 0.419
- mean OD, 4-week old stds ([2]; buffer standard 1000 ng/ml, 4 weeks at 2-8° C.): 0.317
- mean OD, fresh ([2]; buffer standard 1000 ng/ml): 0.235
- decrease in immunoreactivity ([2]; 4 weeks at 2-8 C.): resulted in a 30-40% decrease in
- decrease in immunoreactivity ([2]; 4 weeks at 2-8° C., vs fresh standards): 30-40%

From patent US20150212068A1, “Cholyl-L-Lysyl-Fluorescein Assay” (Novassay SA, priority 2012, published 2015)
